Patent US4914198A, “Novel substance UCY1003 and process for preparing the same” (priority 1985, dated 1990)
Values after ≈ are worked out from the molar mass of the structure shown.

Columns and labels:
[1] = test system: male dd mice (number of writhes); assay: Analgesic activity: acetic acid-induced writhing in mice; assay type: in vivo; details: for Inhibition Ratio: i.p., 60 min before acetic acid, N = 4
Protocol: In this experiment, 4 male dd mice wieghing 20±1 g were used as one group for examination of analgesic activity. Sixty minutes after intraperitoneal administration of UCY1003 to each animal, 0.2 ml of a 0.7% acetic acid solution was intraperitoneally administered to the animal. Starting 10 minutes after the administration of acetic acid, the number of writhes occurred in 5 minutes was counted. Inhibition ratio in comparison with control group was calculated by the following equation. ED50 value was calculated in accordance with Litchfield and Wilcoxon. [formula] A: Average number of writhes of control group B: Average number of writhes of test group

Acute toxicity in mice = details: mouse, in vivo, ip; single intraperitoneal administration, 5 ddY mice, 14 days observation, Beherns Karber's method
Protocol: UCY1003 was intraperitoneally administered once to each animal of the test group consisting of 5 ddY mice. […] The LD50 was determined by Beherns Karber's method to be more than 200 mg/kg.

[2] = test system: Male spontaneously hypertensive rats (SHR) of Okamoto-Aoki strain; assay: Hypotensive activity: systolic blood pressure of conscious SHR, tail artery, plethysmographic apparatus; assay type: in vivo, rat (SHR; details: for Blood Pressure after (90 min): 90 min after administration; for Blood Pressure after (90 min) / Blood Pressure Difference (before vs 90 min after administration) / Blood Pressure before: N = 3; for Blood Pressure after (90 min) / Blood Pressure before: mean ± S.E.; for Blood Pressure Difference (before vs 90 min after administration): a decrease; for Blood Pressure before: before administration (baseline)
Protocol: Male spontaneously hypertensive rats (SHR) of Okamoto-Aoki strain (body weight, 310-360 g) were used. Systolic blood pressure of conscious SHR was measured indirectly from the tail artery with a plethysmographic apparatus (Ueda Electric Works, USM-105R). Test compound UCY1003 was suspended in 0.3% sodium carboxymethylcellulose (CMC) solution and was intraperitoneally administered in a volume of 2 ml per kg of body weight.

[3] = test system: Staphylococcus aureus ATCC 6538P; assay: Agar dilution method (pH 7), MIC; assay type: cell-based; details: ATCC6538P
From the text: (§1) Anti-bacterial activities of UCY1003 against various microorganisms measured by agar dilution method (pH 7) are shown in Table 3.

[4] = test system: Saccharomyces cerevisiae C-203; assay: Agar dilution method (pH 7), MIC; assay type: cell-based; details: C203
From the text: as §1

[5] = test system: Salmonella typhosa ATCC 9992; assay: Agar dilution method (pH 7), MIC; assay type: cell-based; details: Salmonella enterica
From the text: as §1

[6] = test system: Candida albicans ATCC 10231; assay: Agar dilution method (pH 7), MIC; assay type: cell-based; details: ATCC10231
From the text: as §1

Escherichia coli ATCC 26 = assay: Agar dilution method (pH 7), MIC; assay type: cell-based; details: ATCC26
From the text: as §1

[7] = test system: Klebsiella pneumoniae ATCC 10031; assay: Agar dilution method (pH 7), MIC; assay type: cell-based; details: ATCC10031
From the text: as §1

[8] = test system: Bacillus subtilis No. 10707; assay: Agar dilution method (pH 7), MIC; assay type: cell-based
From the text: as §1

With `C=C(CCC1(C)OC2O[C@@H]3C[C@H]1[C@]21CC[C@@H]2[C@@]4(C)CC[C@H](O)C[C@@H]4C[C@@H]4O[C@@]42[C@H]31)C(C)C` (stereo partly drawn) [UCY1003] the “Inhibition Ratio” value ([1]; 5 mg/kg) was 17%, the “Inhibition Ratio” value ([1]; 10 mg/kg) was 52% and the “Inhibition Ratio” value ([1]; 25 mg/kg) was 52%. For the same compound, the “Inhibition Ratio” value ([1]; 50 mg/kg) was 83%, the “Inhibition Ratio” value ([1]; 100 mg/kg) was 95% and the ED50 ([1]; Mus musculus, ip, calculated in accordance with Litchfield and Wilcoxon) was 17 mg/kg. The LD50 at 336 h (Acute toxicity in mice) was over 200 mg/kg, the “Blood Pressure after (90 min)” value ([2]; 50 mg/kg, i.p.) was 177 ± 14 mmHg and the “Blood Pressure Difference (before vs 90 min after administration)” value ([2]; 50 mg/kg, i.p.) was 18 ± 15 mmHg. For the same compound, the hypotension ([2]; 100 mg/kg, i.p.) was “caused hypotension”, the “Blood Pressure after (90 min)” value ([2]; 100 mg/kg, i.p.) was 142 ± 9 mmHg and the “Blood Pressure Difference (before vs 90 min after administration)” value ([2]; 100 mg/kg, i.p.) was 45 ± 8 mmHg. For the same compound, the “Blood Pressure before” value ([2]; 50 mg/kg i.p. group) was 195 ± 8 mmHg, the “Blood Pressure before” value ([2]; 100 mg/kg i.p. group) was 187 ± 3 mmHg and the MIC [3] was over 100 µg/mL. It also gave an MIC [4] of 2 µg/mL (≈ 4.52 µM), an MIC [5] of over 100 µg/mL and an MIC [6] of over 100 µg/mL. It also gave an MIC (Escherichia coli ATCC 26) of over 100 µg/mL, an MIC [7] of over 100 µg/mL and an MIC [8] of over 100 µg/mL.
